{
  "source": "patent US11673866B2",
  "about": "“Estrogen receptor beta ligands for the prevention and treatment of multiple sclerosis (MS) and other demyelinating, inflammatory and neurodegenerative diseases” (The Board of Trustees of the University of Illinois, priority 2018, dated 2023)",
  "key": {"ERα": {"target": "T1, ERα (Homo sapiens, UniProt P03372)", "T1 sequence (P03372 1-595)": "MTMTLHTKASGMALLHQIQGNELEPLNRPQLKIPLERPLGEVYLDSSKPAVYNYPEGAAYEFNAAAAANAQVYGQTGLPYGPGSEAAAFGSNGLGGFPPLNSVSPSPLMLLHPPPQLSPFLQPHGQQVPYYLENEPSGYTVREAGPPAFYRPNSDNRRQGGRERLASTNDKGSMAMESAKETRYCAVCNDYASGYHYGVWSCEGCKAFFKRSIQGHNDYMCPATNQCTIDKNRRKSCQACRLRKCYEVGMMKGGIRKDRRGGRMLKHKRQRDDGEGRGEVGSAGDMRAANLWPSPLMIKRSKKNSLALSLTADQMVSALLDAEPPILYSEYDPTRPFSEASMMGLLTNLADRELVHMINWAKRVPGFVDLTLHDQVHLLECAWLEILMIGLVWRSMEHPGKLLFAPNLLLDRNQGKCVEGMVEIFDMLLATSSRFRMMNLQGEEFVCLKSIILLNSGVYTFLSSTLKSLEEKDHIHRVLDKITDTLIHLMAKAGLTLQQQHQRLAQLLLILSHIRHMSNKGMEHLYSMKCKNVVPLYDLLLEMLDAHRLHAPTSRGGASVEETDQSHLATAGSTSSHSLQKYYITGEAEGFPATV", "assay": "Relative binding affinity (RBA) to estrogen receptor alpha, radiometric measurement", "settings": "relative value to 100% for E2 by radiometric measurement"}, "[1]": {"tested_on": "primary oligodendrocyte and oligodendrocyte precursor cells (OL/OPCs)", "assay": "Primary OPC culture differentiation (MBP immunostaining, DAPI)", "format": "cell-based, mouse", "settings": "for number of MBP+ OLs (differentiated OLs) / branched OLs / complex branching cells: 10 nM, vs vehicle-treated cells; for number of MBP+ OLs (differentiated OLs): 3 days in differentiating media", "protocol": "Primary OPC Cultures: Primary OPCs, isolated from postnatal day P1 C57BL/6 male and female mouse cortices as described previously, were treated with 10 nM ligands in differentiating medium for 3 days (Tiwari-Woodruff et al., 2001; Tiwari-Woodruff et al., 2006). Primary OPC were cultured into 8-well chamber slides (three wells per condition, 2.5×10^5 cells/well) for three days to attach and […] in differentiating media (consisting of DMEM-F12 with triiodothyronine- and thyroxine-containing Sato as well as penicillin, streptomycin, insulin, N-acetyl-L-cysteine, forskolin, ciliary neurotrophic factor, neurotrophin-3, and platelet-derived growth factor receptor α (Tiwari-Woodruff et al., 2001)). A positive control (IndCl), a negative control (Vehicle consisting of the media+EtOH mixture used to dissolve IndCl), and a normal control (differentiating media alone) were used for comparison. At the end of the treatment period, cells were fixed, stained by immunocytochemistry (primary antibody polyclonal chicken myelin basic protein (MBP, Millipore AB9348), shown in green and co-stained with nuclear stain—DAPI shown in blue), and imaged with an Olympus BX61 confocal microscope (Olympus America Inc., Center Valley, Pa.) at 10× magnification (3 images per well). Cells were counted using the ImageJ multipoint tool, and counts were then divided by the image area (mm^2). Average cell density for each condition was then divided by the normal condition cell density. Analysis of OL differentiation consisted of counting the number of MBP+ cells and process extensions that were longer than the respective cell-body diameter and tracking the number of highly branched MBP+ cells (with three or more processes) (Monnerie et al., 2017). Statistics were performed using GraphPad Prism 6 Software (La Jolla, Calif.). One-way ANOVA with Tukey's posthoc test for multiple comparisons was used to generate p-values, and data are presented as mean SEM (with α≤0.05).\nPrimary OPC cultures were used as a convenient cell-based assay to characterize the proliferation and/or differentiation effects of the new IndCl analogues and to select those most suitable for more extensive studies to be done in comparison with the parental ligand, IndCl. 48 hours after plating OPCs, one of seven IndCl analogues (FIG. 1A) was added to differentiating media at a concentration of 10 nM (De Angelis et al., 2005; Saijo et al., 2011). OPCs were allowed to differentiate for 3 days in the presence of IndCl or analogues, at which point they were fixed, immunostained for OPC/OL markers, and quantified. […] The total number of cells in culture was not altered by any treatment (FIGS. 1B and 1D)."}},
  "note": "Entries after “also recorded” stand apart in the source; their conditions may differ.",
  "data": [
    {"smiles": "Oc1ccc(-n2nc3ccc(O)cc3c2Cl)cc1", "note": "[IndCl, chloroindazole]", "values": [
      {"measurement": "RBA ERα", "setting": "ERα", "value": 0.03, "unit": "%"},
      {"measurement": "number of MBP+ OLs (differentiated OLs)", "setting": "[1]", "value": "significantly increased"}
    ]},
    {"smiles": "Oc1ccc(-n2nc3ccc(O)cc3c2Cl)c(Cl)c1", "note": "[IndCl-o-Cl, 3-chloro-2-(2-chloro-4-hydroxyphenyl)-2H-indazol-5-ol]", "values": [
      {"measurement": "RBA ERα", "setting": "ERα", "value": 0.40, "unit": "%"},
      {"measurement": "number of MBP+ OLs (differentiated OLs)", "setting": "[1]", "value": "significant increase; also recorded: significantly increased"},
      {"measurement": "branched OLs / complex branching cells", "setting": "[1]", "value": "increase in the percentage of branched OLs"}
    ]},
    {"smiles": "Cc1cc(O)ccc1-n1nc2ccc(O)cc2c1Cl", "note": "[IndCl-o-Me, 3-chloro-2-(4-hydroxy-2-methylphenyl)-2H-indazol-5-ol]", "values": [
      {"measurement": "RBA ERα", "setting": "ERα", "value": 0.43, "unit": "%"},
      {"measurement": "number of MBP+ OLs (differentiated OLs)", "setting": "[1]", "value": "significant increase; also recorded: significantly increased"},
      {"measurement": "branched OLs / complex branching cells", "setting": "[1]", "value": "increase in the percentage of branched OLs"},
      {"measurement": "MBP+/DAPI ratio (OPC differentiation)", "setting": "[1]; FIG. 10B", "value": "greatest increase"}
    ]}
  ]
}
